In paper PMC10305115, “Development of a Minimalistic Physiologically Based Pharmacokinetic (mPBPK) Model for the Preclinical Development of Spectinamide Antibiotics” (Pharmaceutics, 2023):
Read-outs that look alike come from different tables or passages of the source.

Tests used:
[1] = tested on: plasma proteins; assay: Plasma protein binding by equilibrium dialysis (RED device), mouse plasma; assay type: in vitro ADME, BALB/c mice
Description: (§1) Plasma protein binding was measured by equilibrium dialysis using a RED device (8 kDa molecular cutoff; Thermo Scientific, Rockford, IL, USA) containing plasma and buffer chambers for dialysis and a base plate. Two concentrations (0.5 and 5 mg/L) of 1599 and 1810 were prepared in mouse plasma from BALB/c mice and rat plasma from Sprague-Dawley rats, and an aliquot of 300 µL was added in the plasma chamber in duplicate. A 500 µL aliquot of PBS was added in the buffer chamber for dialysis. Then, the base plate was covered with sealing tape and incubated at 37 °C at approximately 100 rpm on an orbital shaker for 4 h to achieve equilibrium. After incubation, 50 µL of each sample was pipetted from the plasma and buffer chambers into separate micro-centrifuge tubes. A total of 50 µL of plasma was added to the buffer samples and an equal volume of PBS to the collected plasma samples and vortexed. Samples were processed by protein precipitation and analyzed for bound and unbound drug concentrations by liquid chromatography-tandem mass spectrometry (LC-MS/MS). Ranitidine (0.5 and 5 mg/L) was included as a positive control. The fraction of compound unbound to plasma proteins (fu) was calculated from the measured concentrations in the plasma and buffer chambers using the following equation:(1) fu=1−C(Plasma Chamber)−C(Buffer Chamber)/C(Plasma Chamber)

[2] = tested on: plasma proteins; assay: Plasma protein binding by equilibrium dialysis (RED device), rat plasma; assay type: in vitro ADME, Sprague-Dawley rats; details: 0.5 and 5 mg/L, 37 °C, 4 h
Description: as §1

[3] = tested on: ELF proteins; assay: Fraction unbound in epithelial lining fluid calculated by Poulin and Theil equation, mouse; details: calculated from fu in plasma and albumin ratio plasma/ELF
Description: (§2) For intravenous administration, the bolus dose was assumed to be mixed instantaneously into the venous blood. For subcutaneous administration, the dose was administered as an external compartment, absorbed into the venous compartment via a first-order absorption rate constant and a bioavailability component. For intrapulmonary aerosol administration, we have modified the lung tissue by adding the epithelial lining fluid (ELF) sub-compartment, as shown in Figure 2. The physiological volume of the ELF sub-compartment was obtained from the literature. The dose was administered as an external compartment, absorbed into the ELF compartment via a first-order absorption rate constant and a bioavailability component. The compound was assumed to be bound to the ELF proteins, and only the unbound fraction was distributed to the other sub-compartments of the lungs and ultimately to the systemic circulation. The fraction unbound in ELF was calculated from the fraction unbound in plasma and the albumin ratio between plasma and ELF using the equation described by Poulin and Theil.

[4] = tested on: ELF proteins; assay: Fraction unbound in epithelial lining fluid calculated by Poulin and Theil equation, rat; details: calculated from fu in plasma and albumin ratio plasma/ELF
Description: as §2

[5] = Integrated mouse and rat PBPK model, inter-animal variability; details: Intravenous Estimate (%RSE); simultaneous fit of mouse and rat plasma and tissue data
[6] = Simcyp multicompartment lung and granuloma model simulation; details: Simcyp model input parameter (Table S1), human PBPK model
[7] = Parallel artificial membrane permeability assay (PAMPA); assay type: in vitro ADME; details: passive permeability could not be determined
[8] = Subcutaneous PBPK model predictions vs observed plasma concentrations in Mtb infected mice; assay type: in vivo, BALB/c mice; details: SC dose-ranging and dose-fractionation studies
[9] = Mouse (20 g); BALB/c blood, 37 °C, 1 h
Description: (§3) Fresh blood was collected from BALB/c mice and Sprague-Dawley rats via cardiac puncture in tubes with lithium heparin as anticoagulant. Hematocrit was measured using a VetScan HM5 hematology analyzer (Abaxis, Union City, CA, USA). […] Aliquots of pre-warmed whole blood and plasma were spiked with the test compounds and incubated at 37 °C. After 1 h of incubation, the incubated whole blood was removed, and the plasma was separated by centrifugation. Aliquots of the incubated control plasma were also removed after 1 h of incubation. Plasma samples were treated with 8 volumes of ice-cold methanol containing internal standard (100 ng/mL spectinomycin) and analyzed for drug concentrations by LC-MS/MS [12].
(§4) The whole blood to plasma ratio k(b/p) was calculated by taking the ratio of the concentrations measured in the control plasma over the concentrations measured in the plasma centrifuged from the incubated whole blood, as shown in Equation (2). The erythrocyte to plasma partitioning coefficient k(RBC/p) was calculated from the whole blood to plasma ratio by accounting for the measured hematocrit, as shown in Equation (3):(2) k(b/p)=CCP/CP (3) k(RBC/p)=1+1/HCCP/CP−1 where CCP is the concentration of the test compound in the control plasma, CP is the concentration of the test compound in the plasma centrifuged from the incubated whole blood, and H is the measured hematocrit value.

[10] = Rat (225 g); Sprague-Dawley blood, 37 °C, 1 h
Description: as §3, §4

[11] = healthy rats, plasma, IV SD 10 mg/kg
Description: After the successful inter-route extrapolation of the model, we scaled the PBPK model between species by extending the model to rats. This was accomplished by incorporating the physiological parameters of a 225 g rat and updating the experimentally assessed drug-specific parameters k(b/p) and fu.

[12] = cited from earlier work; for AUCinf Liver Observed / AUCinf Lung Observed / AUCinf Observed / AUCinf Spleen Observed: healthy mice; for AUCinf Observed: plasma
[13] = healthy rats, plasma, IV SD 10 mg/kg; cited from earlier work
[14] = tested on: murine-lung-derived dendritic cells and a BALB/c-derived monocyte macrophage cell line; details: cited from earlier work
[15] = Minimalistic PBPK model, mouse (fitting and simulation); details: for F Bioavailability component / Ka 1st order absorption rate constant / AUCinf Liver Fold Difference / AUCinf Lung Fold Difference / AUCinf Fold Difference (predicted vs observed) / AUCinf Spleen Fold Difference: healthy mice; for AUCinf Fold Difference (predicted vs observed): plasma
[16] = Intratracheal Estimate (%RSE), intrapulmonary aerosol single dose 50 mg/kg
[17] = Intravenous Estimate (%RSE), model fitted to IV single dose 10 mg/kg plasma and tissue data

In the case of `CN[C@@H]1[C@H](O)[C@H](NC)[C@H]2O[C@]3(O)[C@H](O[C@@H]2[C@H]1O)O[C@H](C)C[C@H]3NC(=O)Cc1ccc(Cl)cn1` [Spectinamide 1599, 2-(5-chloroypyridin-2-yl)-N-((2R,4R,4aS,5aR,6S,7S,8R,9S,9aR, 10aS)-4a,7,9-trihydroxy-2-methyl-6,8-bis(methyl-amino)decahydro-2H-benzo[b]pyrano [2,3-e] [1,4]dioxin-4-yl)acetamide], the “fuPlasma fraction unbound in plasma” value ([1]; Mouse plasma, 0.5 and 5 mg/L, 37 °C, 4 h) is reported as 0.602, the “plasma protein binding” value ([1]; mouse and rat) is reported as “low plasma protein binding” and the “fuPlasma fraction unbound in plasma” value [2] is reported as 0.563. The “fuELF fraction unbound in epithelial lining fluid” value [3] was 0.948, the “fuELF fraction unbound in epithelial lining fluid” value [4] was 0.940 and the “ω KI→CLiver inter-animal variability on KI→CLiver” value [5] was 0.61 (29.8). For the same compound, the “ω KI→CLung inter-animal variability on KI→CLung” value [5] was 0.87 (30.6), the “ω KI→COther inter-animal variability on KI→COthers” value [5] was 0.48 (21.6) and the “ω KI→CSpleen inter-animal variability on KI→CSpleen” value [5] was 0.66 (41.0). The CLR renal clearance [6] was 3.27 L/h, the “PAMPA concentrations in the acceptor compartment” value [7] was “below the limit of detection” and the “difference in pharmacokinetics between healthy and infected mice” value [8] was “no significant difference”. The “k(b/p) blood to plasma ratio” value [9] was 0.552, the “k(b/p) blood to plasma ratio” value [10] was 0.812 and the “AUCinf Fold Difference (predicted vs observed)” value [11] was 1.58. The “dose dependency of disposition” value ([12]; dose range of 10 to 400 mg/kg in mice) was “did not suggest any dose dependencies”, the “AUCinf Liver Observed” value ([12]; IV QD5 10 mg/kg) was 19.6 µg·h/g and the “AUCinf Liver Observed” value ([12]; IV SD 10 mg/kg) was 19.9 µg·h/g. For the same compound, the “AUCinf Liver Observed” value ([12]; SC QD5 200 mg/kg) was 336 µg·h/g, the “AUCinf Liver Observed” value ([12]; SC SD 50 mg/kg) was 91.8 µg·h/g and the “AUCinf Lung Observed” value ([12]; IV QD5 10 mg/kg) was 4.05 µg·h/g. For the same compound, the “AUCinf Lung Observed” value ([12]; IV SD 10 mg/kg) was 3.79 µg·h/g, the “AUCinf Lung Observed” value ([12]; SC QD5 200 mg/kg) was 69.1 µg·h/g and the “AUCinf Lung Observed” value ([12]; SC SD 50 mg/kg) was 19.1 µg·h/g. The “AUCinf Observed” value ([12]; IPA BIW 50 mg/kg) was 14200 ng·h/mL, the “AUCinf Observed” value ([12]; IPA BIW 150 mg/kg) was 108000 ng·h/mL and the “AUCinf Observed” value ([12]; IPA QD5 10 mg/kg) was 3570 ng·h/mL. For the same compound, the “AUCinf Observed” value ([12]; IPA QD5 50 mg/kg) was 39800 ng·h/mL, the “AUCinf Observed” value ([12]; IPA QD5 150 mg/kg) was 96900 ng·h/mL and the “AUCinf Observed” value ([12]; IPA SD 10 mg/kg) was 5510 ng·h/mL. The “AUCinf Observed” value ([12]; IPA SD 50 mg/kg) was 23200 ng·h/mL, the “AUCinf Observed” value ([12]; IPA SD 150 mg/kg) was 59500 ng·h/mL and the “AUCinf Observed” value ([12]; IPA TIW 10 mg/kg) was 5360 ng·h/mL. For the same compound, the “AUCinf Observed” value ([12]; IPA TIW 50 mg/kg) was 24300 ng·h/mL, the “AUCinf Observed” value ([12]; IPA TIW 150 mg/kg) was 61700 ng·h/mL and the “AUCinf Observed” value ([12]; IV QD5 10 mg/kg) was 6370 ng·h/mL. The “AUCinf Observed” value ([12]; IV SD 10 mg/kg) was 7520 ng·h/mL, the “AUCinf Observed” value ([12]; SC QD5 200 mg/kg) was 227000 ng·h/mL and the “AUCinf Observed” value ([12]; SC SD 50 mg/kg) was 40400 ng·h/mL. For the same compound, the “AUCinf Spleen Observed” value ([12]; IV QD5 10 mg/kg) was 3.91 µg·h/g, the “AUCinf Spleen Observed” value ([12]; IV SD 10 mg/kg) was 3.42 µg·h/g and the “AUCinf Spleen Observed” value ([12]; SC QD5 200 mg/kg) was 110 µg·h/g. The “AUCinf Spleen Observed” value ([12]; SC SD 50 mg/kg) was 23.6 µg·h/g, the “AUCinf Observed” value [13] was 19800 ng·h/mL and the intracellular uptake [14] was “concentration-dependent intracellular uptake”. For the same compound, the estimated absorption half-life ([15]; IPA administration site, mice) was ~ 8 min, the bioavailability ([15]; IPA administration, mice) was 33% and the “F Bioavailability component” value [15, 16] was 0.33 (2.03). For the same compound, the “Ka 1st order absorption rate constant” value [15, 16] was 5.03 (4.53), the “KC→IKidney 1st order back flux from cellular sub compartment of the kidney” value [15, 17] was 0.15 (31.0) 1/h and the “KC→ILiver 1st order back flux from cellular sub compartment of the liver” value [15, 17] was 0.061 (13.7) 1/h. For the same compound, the “KC→ILung 1st order back flux from cellular sub compartment of the lung” value [15, 17] was 0.028 (41.5) 1/h, the “KC→ISpleen 1st order back flux from cellular sub compartment of the spleen” value [15, 17] was 0.01 (106) 1/h and the “KC→Iothers 1st order back flux from cellular sub compartment of the other tissues” value [15, 17] was 7.0 × 10^−5 (142) 1/h. The “F Bioavailability component” value ([15]; Subcutaneous Estimate (%RSE)) was 0.86 (6.15), the “Ka 1st order absorption rate constant” value ([15]; Subcutaneous Estimate (%RSE)) was 4.36 (7.86) and the “AUCinf Liver Fold Difference” value ([15]; IV QD5 10 mg/kg) was 1.58. The “AUCinf Liver Fold Difference” value ([15]; IV SD 10 mg/kg) was 1.2, the “AUCinf Liver Fold Difference” value ([15]; SC QD5 200 mg/kg) was 1.55 and the “AUCinf Liver Fold Difference” value ([15]; SC SD 50 mg/kg) was 1.3. The “AUCinf Lung Fold Difference” value ([15]; IV QD5 10 mg/kg) was 1.39, the “AUCinf Lung Fold Difference” value ([15]; IV SD 10 mg/kg) was 1.65 and the “AUCinf Lung Fold Difference” value ([15]; SC QD5 200 mg/kg) was 1.42. For the same compound, the “AUCinf Lung Fold Difference” value ([15]; SC SD 50 mg/kg) was 1.41, the “AUCinf Fold Difference (predicted vs observed)” value ([15]; IPA BIW 50 mg/kg) was 1.70 and the “AUCinf Fold Difference (predicted vs observed)” value ([15]; IPA BIW 150 mg/kg) was 1.49. For the same compound, the “AUCinf Fold Difference (predicted vs observed)” value ([15]; IPA QD5 10 mg/kg) was 1.36, the “AUCinf Fold Difference (predicted vs observed)” value ([15]; IPA QD5 50 mg/kg) was 1.64 and the “AUCinf Fold Difference (predicted vs observed)” value ([15]; IPA QD5 150 mg/kg) was 1.33. For the same compound, the “AUCinf Fold Difference (predicted vs observed)” value ([15]; IPA SD 10 mg/kg) was 1.13, the “AUCinf Fold Difference (predicted vs observed)” value ([15]; IPA SD 50 mg/kg) was 1.05 and the “AUCinf Fold Difference (predicted vs observed)” value ([15]; IPA SD 150 mg/kg) was 1.23. The “AUCinf Fold Difference (predicted vs observed)” value ([15]; IPA TIW 10 mg/kg) was 1.11, the “AUCinf Fold Difference (predicted vs observed)” value ([15]; IPA TIW 50 mg/kg) was 1.00 and the “AUCinf Fold Difference (predicted vs observed)” value ([15]; IPA TIW 150 mg/kg) was 1.18. For the same compound, the “AUCinf Fold Difference (predicted vs observed)” value ([15]; IV QD5 10 mg/kg) was 1.39, the “AUCinf Fold Difference (predicted vs observed)” value ([15]; IV SD 10 mg/kg) was 1.18 and the “AUCinf Fold Difference (predicted vs observed)” value ([15]; SC QD5 200 mg/kg) was 1.43. The “AUCinf Fold Difference (predicted vs observed)” value ([15]; SC SD 50 mg/kg) was 1.02, the “AUCinf Spleen Fold Difference” value ([15]; IV QD5 10 mg/kg) was 1.44 and the “AUCinf Spleen Fold Difference” value ([15]; IV SD 10 mg/kg) was 1.47. The “AUCinf Spleen Fold Difference” value ([15]; SC QD5 200 mg/kg) was 1.14, the “AUCinf Spleen Fold Difference” value ([15]; SC SD 50 mg/kg) was 1.11 and the “estimated first-order absorption half-life” value ([15]; subcutaneous administration site, mice) was ~ 10 min. The bioavailability ([15]; subcutaneous administration, mice) was 86%.
